Data set [1] relates to IMC tumor. The following applies: premixed with IMC cells and injected into CDF-1 mice; cited from earlier work.
Data set [2] relates to THP-1 human acute monocytic leukemia cells. Briefly: Cytokine production by THP-1 cells (ELISA). The class given is cell-based. The following applies: THP-1, 1×10^6 cells, 100 μg/ml, 48 h; for ↑ IL-12 (fold increase treated vs control cells): p70 complex and free p40. A digest of the protocol:
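Read-out is fold increase in supernatant cytokine versus control cells, measured by ELISA (IL-12 ELISA counts p70 complex plus free p40). Unless noted, sequences were tested at 100 μg/ml on 1×10^6 cells, incubated 48 h, 37° C, 5% CO2.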
For orientation: In an ELISA, binding on a coated surface is turned into a signal by an enzyme label.

Data set [3] has as its system Jurkat human leukemia T cells. Description: Inhibition of Jurkat human leukemia T cell proliferation (MTT reduction). The class given is cell-based. The following applies: 100 μg/ml sequence, 48 h, 2.5×10^5 cells/ml. The procedure, abridged:
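Read-out is MTT absorbance at 570 nm after 48 h. Sequences of 2 to 45 bases (A, C, G, T) tested at 100 μg/ml against untreated control, with 2.5×10^5 Jurkat cells/ml held at 37° C under 5% CO2.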
For orientation: Formazan colour is commonly taken as a measure of viable cells.

The subject of data set [4] is Jurkat human leukemia T cells. Description: Cell cycle stage in Jurkat cells (propidium iodide flow cytometry). The class given is cell-based. The following applies: Jurkat, 24 h, 100 μg/ml. A digest of the protocol:
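Phase distribution (G0/G1, early, mid and late S, G2/M) came from flow cytometry with doublet discrimination on propidium iodide-stained nuclei. Jurkat cells were given 24 h exposure to 2–45-base oligonucleotides, or at 1×10^6 cells/ml to single 6-base GT or AC strands heated 10 min at 65 °C or 1:1 hybridized duplex.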
In general terms: A flow cytometer gives signals particle by particle.

In data set [5] the test system is LNCaP human prostate cancer cells. Description: Inhibition of LNCaP cell proliferation (MTT). Conditions: 100 μg/ml, 48 h, 5×10^5 cells/ml. The class given is cell-based. On the procedure: (§1) Cells were seeded in 6 (1 ml/well), 24 (0.5 ml/well) or 96 (0.1 ml/well) well flat-bottom microplates and were maintained at 37° C. in a 5% CO2 atmosphere. Unless stated otherwise, 2.5×10^5 cells/ml were incubated with 0 μg/ml (control) and 100 μg/ml (treated) of 2 to 45 base sequences containing A, C, G and T for 48 h.
(§2) Cell proliferation was measured using dimethylthiazol-diphenyl-tetrazolium (MTT) reduction (Mosman et al. J. Immunol. Methods 65:55, 1983). MTT was measured at a wavelength of 570 nm using a multiplate spectrophotometer reader (ELX800, Bio-TEK Instruments Inc., Winooski, Vt.).
LNCaP prostate cancer cells are a TGF-beta 1 receptor negative, […], metastatic human solid tumor model. LNCaP cells (5×10^5 cells/ml) were incubated with 6 base GT sequences (Table 9).

Data set [6] deals with EL-4 murine T lymphoma cells. Briefly: Inhibition of EL-4 cell proliferation (MTT). The class given is cell-based. Conditions: 100 μg/ml, 48 h. On the procedure:
as §1, §2
EL-4 murine lymphoma T cells are a suspension tumor model. EL-4 murine lymphoma T cells were incubated with 6, 18, 27 and 33 base GT sequences and with a 15 base ACG sequence (Table 18).

Data set [7] relates to MCF-7 human breast cancer cells. Description: Inhibition of MCF-7 cell proliferation (MTT). The class given is cell-based. Conditions: 100 μg/ml, 48 h, 5×10^5 cells/ml. The procedure, abridged:
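Cells at 2.5×10^5 cells/ml (GT 3- and 6-base series at 5×10^5 cells/ml) treated with 100 μg/ml of 2-45-base oligonucleotide sequences versus untreated control for 48 h at 37 °C, 5% CO2. Proliferation read by MTT reduction at 570 nm.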

The target of data set [8] is T1, telomerase (Homo sapiens, UniProt O14746).
T1 construct: extracts from 2×10^5 Jurkat T cells were assayed using the PCR-telomeric repeat amplification protocol (TRAP); endogenous in cells; host or cells: Jurkat T cells (cell extract)
Description: PCR-telomeric repeat amplification protocol (TRAP) on Jurkat T cell extracts. The class given is biochemical. Conditions: concentrations between 1 and 100 μg/ml, extracts from 2×10^5 Jurkat T cells. On the procedure:
To determine telomerase activity, extracts from 2×10^5 Jurkat T cells were assayed using the PCR-telomeric repeat amplification protocol (TRAP) (Roche, Laval, Québec, Canada).

Data set [9] deals with OVCAR-3 human ovarian cancer cells. Briefly: Inhibition of OVCAR-3 cell proliferation (MTT). The class given is cell-based. Conditions: 100 μg/ml, 48 h, 5×10^5 cells/ml. On the procedure: as §1, §2
OVCAR-3 ovarian cancer cells are a p53 mutated, p21/waf-1/Cip deleted, metastatic human solid tumor model. OVCAR-3 cells (5×10^5 cells/ml) were incubated with 2, 6 and 18 base GT sequences and with a 6 base AGT sequence (Table 11).

For data set [10], the system named is SK-OV-3 human ovarian cancer cells. Description: Inhibition of SK-OV-3 cell proliferation (MTT). The following applies: 100 μg/ml, 48 h, 5×10^5 cells/ml. The class given is cell-based. On the procedure: as §1, §2
SK-OV-3 ovarian cancer cells are a p53 mutated, p21/waf-1/Cip deleted, p15^ink4B deleted, p16^Ink4 deleted, metastatichuman solid tumor model. SK-OV-3 cells (5×10^5 cells/ml) were incubated with 2, 6 and 18 base GT sequences (Table 12).

For data set [11], the system named is MCF-7 human breast cancer cells. Briefly: Cell cycle stage in MCF-7 cells (propidium iodide flow cytometry). The class given is cell-based. Conditions: MCF-7, 5×10^5 cells/ml, 24 h. How it is done:
Cell cycle stage was determined using a […]™ PLUS DNA commercial kit (Becton Dickinson). Briefly, nuclei from cells were obtained by dissolving the cell membrane in a nonionic detergent, eliminating the cell cytoskeleton and nuclear proteins with trypsin, digesting the cellular RNA with RNase and stabilizing the nuclear chromatin with spermine. Propidium iodide was added to the cell nuclei and their fluorescence was analyzed in a flow cytometer equipped with electronic doublet discrimination capability (FACSCalibur, Becton Dickinson, San Jose, Calif.). Accumulation of cells in G0/G1, early S (SE), mid S (SM), late S (SL) or G2/M phases of the cell cycle was analyzed using MODFIT LT software (Verity Software House Inc., Topsham, Mass.).
Exponentially growing Jurkat human leukemia T cells (Table 28) and MCF-7 human breast cancer cells (5×10^5 cells/ml) (Table 29) were incubated for 24 h with 2, 6, 15, 18, 27 and 45 base sequences containing A, C, G and T. The cells were collected and centrifuged and cell cycle stage was determined.

For data set [12], the system named is EL-4 murine T lymphoma cells. Briefly: EL-4 murine T lymphoma in C57/BL6 mice. The class given is in vivo. Conditions: after 4 weeks of treatment, compared with group 1 (saline). On the procedure: EL-4 murine T lymphoma cells are implanted into C57/BL6 mice. The mice are divided into 6 groups of 10 mice. On day 0, group 1 mice receive saline, group 2 mice receive 3 base GT SEQ ID NO:8, group 3 mice receive 6 base SEQ ID NO:25, group 4 mice receive 6 base AG SEQ ID NO:45, group 5 mice receive 18 base GT SEQ ID NO: 18 and group 6 mice receive 27 base GT SEQ ID NO:1. After 4 weeks of treatment, the mice are sacrificed and tumor mass is determined.

The test system of data set [13] is Burkitt lymphoma cells. Conditions: Mata et al. 1997; cited from earlier work.

T1 sequence (O14746 whole entry): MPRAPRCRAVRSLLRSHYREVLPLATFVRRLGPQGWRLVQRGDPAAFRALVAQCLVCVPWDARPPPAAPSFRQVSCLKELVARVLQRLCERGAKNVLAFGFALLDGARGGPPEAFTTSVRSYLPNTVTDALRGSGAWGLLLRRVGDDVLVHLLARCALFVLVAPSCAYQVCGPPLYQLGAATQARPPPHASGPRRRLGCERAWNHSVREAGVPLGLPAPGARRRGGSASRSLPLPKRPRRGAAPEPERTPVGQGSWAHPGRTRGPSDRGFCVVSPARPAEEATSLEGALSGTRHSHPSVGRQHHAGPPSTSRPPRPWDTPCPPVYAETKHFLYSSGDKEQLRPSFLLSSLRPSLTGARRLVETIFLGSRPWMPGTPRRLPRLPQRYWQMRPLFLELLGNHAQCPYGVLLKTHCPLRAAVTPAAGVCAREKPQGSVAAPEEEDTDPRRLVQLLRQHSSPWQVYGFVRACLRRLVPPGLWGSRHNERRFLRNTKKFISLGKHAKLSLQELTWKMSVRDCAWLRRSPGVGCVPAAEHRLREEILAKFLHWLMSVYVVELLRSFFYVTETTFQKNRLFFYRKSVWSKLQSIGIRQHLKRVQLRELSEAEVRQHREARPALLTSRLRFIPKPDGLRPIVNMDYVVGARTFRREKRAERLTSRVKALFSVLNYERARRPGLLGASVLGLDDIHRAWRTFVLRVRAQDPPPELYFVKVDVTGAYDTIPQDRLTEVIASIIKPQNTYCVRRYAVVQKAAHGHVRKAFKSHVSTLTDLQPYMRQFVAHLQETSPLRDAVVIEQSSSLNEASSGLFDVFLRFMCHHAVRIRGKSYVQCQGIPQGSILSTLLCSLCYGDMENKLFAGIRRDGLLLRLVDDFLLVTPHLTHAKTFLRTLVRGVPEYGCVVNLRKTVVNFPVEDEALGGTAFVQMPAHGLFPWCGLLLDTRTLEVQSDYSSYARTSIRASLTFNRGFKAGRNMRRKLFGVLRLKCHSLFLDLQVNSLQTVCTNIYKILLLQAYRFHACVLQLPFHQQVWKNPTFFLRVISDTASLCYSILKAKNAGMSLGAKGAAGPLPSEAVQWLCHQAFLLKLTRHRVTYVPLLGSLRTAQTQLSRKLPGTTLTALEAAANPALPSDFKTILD

With “AAAAGAAGTGGGGTGCCCCCACGATCACCAACGATGGTGTGTCCA (unmodified DNA) [BCG A-2, reference compound]”, in [1], the “inhibition of IMC tumor growth” value is 88%. In addition, in [2], the “↑ IL-6 (fold increase treated vs control cells)” value was 3.9x and the “↑ IL-12 (fold increase treated vs control cells)” value is 1.6x. Also, the “% INHIBITION of Jurkat human leukemia T cell proliferation” value in [3] worked out at 19%.
With “ACCGATGACGTCGCCGGTGACGGCAACACGACGGCCACCGTGCTG (unmodified DNA) [BCG A-4, reference compound]”, the “inhibition of IMC tumor growth” value in data set [1] is reported as 37%. For the same sequence, in [2], the “↑ IL-6 (fold increase treated vs control cells)” value was 1.8x and the “↑ IL-12 (fold increase treated vs control cells)” value was 0.9x. The “% INHIBITION of Jurkat human leukemia T cell proliferation” value in data set [3] is 9%.
In the case of GGGTGG [SEQ ID NO:25 phosphorothioate], in [4], the “% of cells in phase: G0/G1” value is listed as 34.9%, the “% of cells in phase: G2/M” value turned out to be 24.7%, the “% of cells in phase: SE” value came to 14.8% and the “% of cells in phase: SL” value was 10.6%. Moreover, in data set [4], the “% of cells in phase: SM” value is 15.0% and the “Arrest (cell cycle)” value was “None”. The “↑ IL-12 (fold increase treated vs control cells)” value in data set [2] turned out to be 0.0x. The “↑ IL-12 (fold increase treated vs control cells)” value in data set [2] (listed as GsGsGsTsGsGs) was found to be 0 x. The “% INHIBITION of Jurkat human leukemia T cell proliferation” value in data set [3] is 0%. For the same sequence, the “% INHIBITION of LNCaP human prostate cancer cell proliferation” value in data set [5] is listed as −8%. For the same sequence, the “% INHIBITION of EL-4 murine T lymphoma cell proliferation” value in data set [6] is on record as −8%. Further, in [7], the “% INHIBITION of MCF-7 human breast cancer cell proliferation” value is given as 12%. Further, the anti-telomerase activity entry in data set [8] is on record as “Neither GT SEQ ID NO:25-phosphorothioate nor GT SEQ ID NO:49-phosphodiester showed any anti-telomerase actvity”.
On to “GTGTGTGTGTGTGTGTGT (unmodified DNA) [SEQ ID NO:18]”, for which, in data set [4], the “% of cells in phase: G0/G1” value came to 24.2%, the “% of cells in phase: G2/M” value is 16.4%, the “% of cells in phase: SE” value is recorded as 26.7% and the “% of cells in phase: SL” value came to 8.7%. Further, in data set [4], the “% of cells in phase: SM” value is recorded as 24.0% and the “Arrest (cell cycle)” value is on record as “Mid SM”. For the same sequence, the “% INHIBITION of OVCAR-3 human ovarian cancer cell proliferation” value in data set [9] is reported as 10%. In addition, the “↑ IL-6 (fold increase treated vs control cells)” value in [2] is 2.8x. For the same sequence, the “% INHIBITION of Jurkat human leukemia T cell proliferation” value in data set [3] worked out at 60%. Further, the “% INHIBITION of SK-OV-3 human ovarian cancer cell proliferation” value in data set [10] was 6%. In data set [11], the “% cells in phase: G0/G1” value amounted to 25.3%, the “% cells in phase: G2/M” value was 15.7%, the “% cells in phase: SE” value was found to be 31.6% and the “% cells in phase: SL” value came to 10.5%. For the same sequence, in [11], the “% cells in phase: SM” value stood at 16.9% and the “Arrest (cell cycle)” value is given as “Mid SM”. The “% INHIBITION of EL-4 murine T lymphoma cell proliferation” value in data set [6] was −2%. Also, the tumor mass result in [12] is given as “less tumor mass than group 1 mice”.
As to “TTAGGG (phosphodiester backbone) [SEQ ID NO:49, reference compound]”, in data set [4], the “% of cells in phase: G0/G1” value came out at 24.6%, the “% of cells in phase: G2/M” value is given as 12.8%, the “% of cells in phase: SE” value was determined as 37.2% and the “% of cells in phase: SL” value was 5.9%. For the same sequence, in [4], the “% of cells in phase: SM” value is 19.5% and the “Arrest (cell cycle)” value was “Mid SM”. Moreover, the “% INHIBITION of OVCAR-3 human ovarian cancer cell proliferation” value in [9] is reported as 15%. In addition, in data set [2], the “↑ IL-6 (fold increase treated vs control cells)” value is given as 6.7x and the “↑ IL-12 (fold increase treated vs control cells)” value was 2.0x. In addition, the “% INHIBITION of Jurkat human leukemia T cell proliferation” value in data set [3] is 45%. Further, the “% INHIBITION of SK-OV-3 human ovarian cancer cell proliferation” value in data set [10] was 11%. Besides, in data set [11], the “% cells in phase: G0/G1” value worked out at 20.0%, the “% cells in phase: G2/M” value was 15.0%, the “% cells in phase: SE” value is on record as 18.6% and the “% cells in phase: SL” value worked out at 20.7%. Further, in [11], the “% cells in phase: SM” value worked out at 25.7% and the “Arrest (cell cycle)” value is reported as “Mid SM”. Besides, the anti-telomerase activity result in data set [8] (listed as SEQ ID NO:49-phosphodiester) was “Neither GT SEQ ID NO:25-phosphorothioate nor GT SEQ ID NO:49-phosphodiester showed any anti-telomerase actvity”.
Consider “TTAGGG (phosphorothioate backbone) [SEQ ID NO:49-phosphorothioate]”, for which, in [13], the “induction of apoptosis in Burkitt lymphoma cells” value is reported as “induce apoptosis in Burkitt lymphoma cells” and the “inhibition of telomerase activity” value is on record as “inhibit telomerase activity”.
